Results published in patent US12077503B2, “Substituted cyclic amides and their use as herbicides” (FMC CORPORATION, priority 2015, dated 2024).

Tests used:
Test in all cases: Test E preemergence
Format in all cases: in vivo
Conditions in all cases: scale 0 to 100
[1] = tested on: Kochia (Kochia scoparia)
Summary of the method: (§1)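 Visual ratings from 0 (no effect) to 100 (complete control) were made versus controls 14 to 21 d after treatment. Seeds in silt loam were treated preemergence, or plants 2 to 18 cm tall in peat-based medium postemergence, with the test chemical in a surfactant-containing, non-phytotoxic solvent mixture, then held in a greenhouse.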

[2] = tested on: crabgrass, Brazil (Brazilian crabgrass, Digitaria horizontalis)
Summary of the method: as §1

[3] = tested on: foxtail, green (green foxtail, Setaria viridis)
Summary of the method: as §1

[4] = tested on: foxtail, giant (giant foxtail, Setaria faberii)
Summary of the method: as §1

[5] = tested on: velvetleaf (Abutilon theophrasti)
Summary of the method: as §1

[6] = tested on: arrowleaf Sida (Sida rhombifolia)
Summary of the method: as §1

[7] = tested on: waterhemp (common waterhemp, Amaranthus rudis)
Summary of the method: as §1

[8] = tested on: dayflower, VA (Virginia dayflower, Commelina virginica)
Summary of the method: as §1

[9] = tested on: lambsquarters (Chenopodium album)
Summary of the method: as §1

[10] = tested on: goosegrass (Eleusine indica)
Summary of the method: as §1

[11] = tested on: corn (Zea mays)
Summary of the method: as §1

[12] = tested on: nightshade (eastern black nightshade, Solanum ptycanthum)
Summary of the method: as §1

[13] = tested on: crabgrass, large (large crabgrass, Digitaria sangumnalis)
Summary of the method: as §1

[14] = tested on: sandbur (southern sandbur, Cenchrus echinatus)
Summary of the method: as §1

[15] = tested on: ryegrass, Italian (Italian ryegrass, Lolium multiflorum)
Summary of the method: as §1

[16] = tested on: ragweed (common ragweed, Ambrosia elatior)
Summary of the method: as §1

[17] = tested on: pigweed, palmer (palmer pigweed, Amaranthus palmeri)
Summary of the method: as §1

CN1CC(c2cccc(OC(F)(F)C(F)F)c2)C(C(=O)Nc2cccc(F)c2F)C1=O (centres unmarked) [Compound 392]
Plant response rating: Kochia ([1]; 31 g ai/ha): 85 | Plant response rating: Kochia ([1]; 62 g ai/ha): 90 | Plant response rating: Kochia ([1]; 125 g ai/ha): 80 | Plant response rating: Kochia ([1]; 250 g ai/ha): 90 | Plant response rating: Crabgrass, Brazil ([2]; 31 g ai/ha): 98 | Plant response rating: Crabgrass, Brazil ([2]; 62 g ai/ha): 98 | Plant response rating: Crabgrass, Brazil ([2]; 125 g ai/ha): 98 | Plant response rating: Crabgrass, Brazil ([2]; 250 g ai/ha): 98 | Plant response rating: Foxtail, Green ([3]; 31 g ai/ha): 65 | Plant response rating: Foxtail, Green ([3]; 62 g ai/ha): 90 | Plant response rating: Foxtail, Green ([3]; 125 g ai/ha): 95 | Plant response rating: Foxtail, Green ([3]; 250 g ai/ha): 98 | Plant response rating: Foxtail, Giant ([4]; 31 g ai/ha): 90 | Plant response rating: Foxtail, Giant ([4]; 62 g ai/ha): 95 | Plant response rating: Foxtail, Giant ([4]; 125 g ai/ha): 98 | Plant response rating: Foxtail, Giant ([4]; 250 g ai/ha): 98 | Plant response rating: Velvetleaf ([5]; 31 g ai/ha): 0 | Plant response rating: Velvetleaf ([5]; 62 g ai/ha): 20 | Plant response rating: Velvetleaf ([5]; 125 g ai/ha): 50 | Plant response rating: Velvetleaf ([5]; 250 g ai/ha): 75 | Plant response rating: Arrowleaf Sida ([6]; 31 g ai/ha): 0 | Plant response rating: Arrowleaf Sida ([6]; 62 g ai/ha): 15 | Plant response rating: Arrowleaf Sida ([6]; 125 g ai/ha): 65 | Plant response rating: Arrowleaf Sida ([6]; 250 g ai/ha): 80 | Plant response rating: Waterhemp ([7]; 31 g ai/ha): 35 | Plant response rating: Waterhemp ([7]; 62 g ai/ha): 80 | Plant response rating: Waterhemp ([7]; 125 g ai/ha): 70 | Plant response rating: Waterhemp ([7]; 250 g ai/ha): 90 | Plant response rating: Dayflower, VA ([8]; 31 g ai/ha): 0 | Plant response rating: Dayflower, VA ([8]; 62 g ai/ha): 0 | Plant response rating: Dayflower, VA ([8]; 125 g ai/ha): 0 | Plant response rating: Dayflower, VA ([8]; 250 g ai/ha): 35 | Plant response rating: Lambsquarters ([9]; 31 g ai/ha): 75 | Plant response rating: Lambsquarters ([9]; 62 g ai/ha): 75 | Plant response rating: Lambsquarters ([9]; 125 g ai/ha): 98 | Plant response rating: Lambsquarters ([9]; 250 g ai/ha): 100 | Plant response rating: Goosegrass ([10]; 31 g ai/ha): 85 | Plant response rating: Goosegrass ([10]; 62 g ai/ha): 90 | Plant response rating: Goosegrass ([10]; 125 g ai/ha): 95 | Plant response rating: Goosegrass ([10]; 250 g ai/ha): 95 | Plant response rating: Corn ([11]; 31 g ai/ha): 0 | Plant response rating: Corn ([11]; 62 g ai/ha): 15 | Plant response rating: Corn ([11]; 125 g ai/ha): 50 | Plant response rating: Corn ([11]; 250 g ai/ha): 70 | Plant response rating: Nightshade ([12]; 31 g ai/ha): 20 | Plant response rating: Nightshade ([12]; 62 g ai/ha): 80 | Plant response rating: Nightshade ([12]; 125 g ai/ha): 90 | Plant response rating: Nightshade ([12]; 250 g ai/ha): 90 | Plant response rating: Crabgrass, Large ([13]; 31 g ai/ha): 90 | Plant response rating: Crabgrass, Large ([13]; 62 g ai/ha): 95 | Plant response rating: Crabgrass, Large ([13]; 125 g ai/ha): 98 | Plant response rating: Crabgrass, Large ([13]; 250 g ai/ha): 98 | Plant response rating: Sandbur ([14]; 31 g ai/ha): 0 | Plant response rating: Sandbur ([14]; 62 g ai/ha): 60 | Plant response rating: Sandbur ([14]; 125 g ai/ha): 60 | Plant response rating: Sandbur ([14]; 250 g ai/ha): 90 | Plant response rating: Ryegrass, Italian ([15]; 31 g ai/ha): 0 | Plant response rating: Ryegrass, Italian ([15]; 62 g ai/ha): 10 | Plant response rating: Ryegrass, Italian ([15]; 125 g ai/ha): 60 | Plant response rating: Ryegrass, Italian ([15]; 250 g ai/ha): 70 | Plant response rating: Ragweed ([16]; 31 g ai/ha): 0 | Plant response rating: Ragweed ([16]; 62 g ai/ha): 0 | Plant response rating: Ragweed ([16]; 125 g ai/ha): 0 | Plant response rating: Ragweed ([16]; 250 g ai/ha): 65 | Plant response rating: Pigweed, Palmer ([17]; 31 g ai/ha): 0 | Plant response rating: Pigweed, Palmer ([17]; 62 g ai/ha): 20 | Plant response rating: Pigweed, Palmer ([17]; 125 g ai/ha): 35 | Plant response rating: Pigweed, Palmer ([17]; 250 g ai/ha): 90
